# Where two headings read alike, the source gives them in different places.
# Legend:
# [1] = system: gouty arthritis-type pain; assay: PIFIR pain-induced functional impairment model in the rat; type: in vivo, male Wistar rats; details: for MAXIMUM EFFICACY (ABC: X ± E.E.): dose of each analgesic (mg/kg); for Emax reached in the temporal curve / latency in reaching the Emax in the temporal curve: highest doses; for RELATIVE EFFICACY: relative to maximum efficacy of rac-ketorolac
# Excerpt: In order to determine and compare the antinociceptive effects of these analgesics the preclinical experimental model of PIFIR “pain-induced functional impairment model in the rat” was used.
# [2] = system: rat population; details: rats, oral route; FIG. 7
# [3] = cited from earlier work
# [4] = system: plasmatic proteins; details: cited from earlier work
# [5] = doses needed to generate 50% of the most effective effect, oral route
Compound,"effective dose 50 (ED50, 50% of its own maximum effect) ([1]; PIFIR model, rats, oral route, FIG. 6)","MAXIMUM EFFICACY (ABC: X ± E.E.) ([1]; PIFIR model, rats, oral route)","ED60 (mg/kg, oral route) (with regard to Emax: 324 au) ([1]; PIFIR model, rats) [mg/kg]","times more potent than acetylsalicylic acid [1, 5] [times]","times more potent than morphine [1, 5] [times]","times more potent than rac-ketorolac [1, 5] [times]","fixed effect 4 hours after administration ([1]; higher doses, oral route, 4 hours)",Emax reached in the temporal curve ([1]; oral route),latency in reaching the Emax in the temporal curve ([1]; oral route),lethal dose 50 (LD50) [2],"RELATIVE POTENCY (relative to 5-ketorolac) ([1]; PIFIR model, rats, oral route)","RELATIVE EFFICACY ([1]; PIFIR model, rats, oral route)",onset of the analgesic effects after administration ([3]; any presentation) [min],excreted renally as a conjugated metabolite ([3]; in vivo) [%],excreted renally as a hydroxylated metabolite ([3]; in vivo) [%],excreted renally as the unaltered drug ([3]; in vivo) [%],metabolized in the liver by conjugation ([3]; inactive metabolites) [%],time of maximum level ([3]; intravenous and intramuscular use),"time of maximum level ([3]; oral administration, tablets or capsules) [h]",bonds with plasmatic proteins [4] [%]
"2-amino-2-hydroximethyl-1,3 propanediol (1:1) S-(−)-5-benzoyl-2,3-dihydro-1H-pyrrolizine-1-carboxylate [S-(−)-ketorolac tromethamine]",less than the rest of the active substances being studied,310.5 ± 13.5,0.36 ± 1.0,1037,82,3.3,the same as that exhibited for rac-ketorolac and by morphine but higher than that exhibited by acetylsalicylic acid,"Emax similar to that exhibited by rac-ketorolac and morphine, but this Emax was higher than that exhibited by acetylsalicylic acid","latency similar to that exhibited by rac-ketorolac, but less than that exhibited by morphine","smaller than the acetylsalicylic acid, but larger than the one reported for rac-ketorolac and morphine",,,,,,,,,,
"CN1CC[C@]23c4c5ccc(O)c4O[C@H]2[C@@H](O)C=C[C@H]3[C@H]1C5 [Morphine, morphine]",,310.8 ± 8.9,29.35 ± 1.1,,,,,,,,−81.5,1.0,,,,,,,,
"O=C(c1ccccc1)c1ccc2n1CCC2C(=O)O (racemic) [rac-ketorolac, ketorolac tromethamine]",,324.6 ± 7.8,1.19 ± 1.2,,,,,,,,−3.3,1.0,30,21.9,11.5,60.2,21,first and second hour,3,99
"CC(=O)Oc1ccccc1C(=O)O [Acetylsalicylic Acid, acetylsalicylic acid]",,226.6 ± 11.7,373.3 ± 1.7,,,,,smaller than those exhibited by the other analgesics,least latency in reaching its Emax,,"−1,036.9",0.70,,,,,,,,

# From patent US20210179623A1, “NEW CHEMICAL COMPOUND CONTAINING ACTIVE ENANTIOMETER S-(-) KETOROLAC TROMETHAMINE FOR THE TREATMENT OF PAIN” (priority 2017, published 2021)
